Results on 4 molecules are retold here after US20080064691A1, “Heterocyclic Amide Derivatives Which Possess Glycogen Phosphorylase Inhibitory Activity” (AstraZeneca AB, priority 2003, published 2008).

Experiment [1] deals with hepatocytes. Particulars: cited from earlier work.
Experiment [2] relates to db/db and ob/ob mice. The following applies: db/db and ob/ob mice following treatment; cited from earlier work.
Experiment [3] has as its system conscious dogs. The following applies: cited from earlier work.
Experiment [4] concerns the target T1, Human recombinant liver glycogen phosphorylase a (hrl GPα) (Homo sapiens, UniProt P06737).
T1 sequence (P06737 1-847): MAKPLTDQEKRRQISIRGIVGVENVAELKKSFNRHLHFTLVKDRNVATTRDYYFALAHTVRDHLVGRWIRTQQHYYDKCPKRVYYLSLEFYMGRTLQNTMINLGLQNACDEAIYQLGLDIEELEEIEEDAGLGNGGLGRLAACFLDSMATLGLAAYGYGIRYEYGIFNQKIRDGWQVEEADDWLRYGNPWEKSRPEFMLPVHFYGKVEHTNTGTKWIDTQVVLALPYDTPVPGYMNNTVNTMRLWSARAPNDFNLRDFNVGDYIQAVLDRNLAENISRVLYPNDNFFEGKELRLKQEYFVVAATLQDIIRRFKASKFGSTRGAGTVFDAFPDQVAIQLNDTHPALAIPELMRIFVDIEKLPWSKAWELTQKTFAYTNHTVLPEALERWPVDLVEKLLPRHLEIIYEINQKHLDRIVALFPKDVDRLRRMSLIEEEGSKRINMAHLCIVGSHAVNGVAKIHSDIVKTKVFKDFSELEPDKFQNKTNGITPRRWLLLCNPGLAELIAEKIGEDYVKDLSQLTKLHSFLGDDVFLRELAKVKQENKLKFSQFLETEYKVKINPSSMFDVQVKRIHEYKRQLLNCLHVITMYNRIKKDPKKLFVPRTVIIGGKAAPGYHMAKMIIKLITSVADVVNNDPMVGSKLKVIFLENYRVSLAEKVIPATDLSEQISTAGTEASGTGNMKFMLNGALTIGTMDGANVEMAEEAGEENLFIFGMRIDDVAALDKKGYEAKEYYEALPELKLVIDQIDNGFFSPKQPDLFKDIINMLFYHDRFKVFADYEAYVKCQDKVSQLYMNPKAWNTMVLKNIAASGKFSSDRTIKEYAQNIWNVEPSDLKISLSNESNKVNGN
Put plainly: glycogen phosphorylase inhibition, multienzyme coupled assay (glucose-1-phosphate production from glycogen). The format is biochemical. Particulars: hrl GPα 20 nM, 6 hours at 30° C. The protocol:
The activity of the compounds is determined by measuring the inhibitory effect of the compounds on glycogen degradation, the production of glucose-1-phosphate from glycogen is monitored by the multienzyme coupled assay, as described in EP 0 846 464 A2, general method of Pesce et al (Pesce, M A, Bodourian, S H, Harris, R C, and Nicholson, J F (1977) Clinical Chemistry 23, […]). The reactions were in 384 well microplate format in a volume of 50 μl. The change in fluorescence due to the conversion of the co-factor NAD to NADH is measured at 340 nm excitation, 465 nm emission in a Tecan Ultra Multifunctional Microplate Reader. The reaction is in 50 mM HEPES, 3.5 mM KH2PO4, 2.5 mM MgCl2, 2.5 mM ethylene glycol-bis(b-aminoethyl ether) N,N,N′,N′-tetraacetic acid, 100 mM KCl, 8 mM D-(+)-glucose pH7.2, containing 0.5 mM dithiothreitol, the assay buffer solution. Human recombinant liver glycogen phosphorylase a (hrl GPα) 20 nM is pre-incubated in assay buffer solution with 6.25 mM NAD, 1.25 mg type III glycogen at 1.25 mg ml^−1 the reagent buffer, for 30 minutes. […] The non-inhibited activity of GPα is measured in the presence of 10 μl 5% DMSO in assay buffer solution and maximum inhibition measured in the presence of 5 mgs ml^−1 N-ethylmaleimide. […] Relative Fluoresence Units (RFUs) are measured at 340 nm excitation, 465 nm emission . […]

Take `O=C(N[C@@H](Cc1ccc(F)cc1)C(=O)N1CCC(O)CC1)c1cc2cc(Cl)ccc2[nH]1` [CP320626]: in experiment [1], the glucagon stimulated glycogenolysis entry is recorded as “reduce” and the glucose output entry was “reduce”. In addition, the plasma glucose concentration entry in experiment [2] is given as “reduced, in a dose related manner”.
Take `CN(C)C(=O)[C@H](O)[C@H](Cc1ccccc1)NC(=O)c1cc2cc(Cl)ccc2[nH]1` [CP91149]: in experiment [1], the glucagon stimulated glycogenolysis result is listed as “reduce” and the glucose output entry was “reduce”. Moreover, the plasma glucose concentration entry in experiment [2] was “reduced, in a dose related manner”.
Consider `CCN1C(C)=C(C(=O)OC(C)C)C(c2ccccc2Cl)C2=C1COC2=O` (stereo not drawn) [Bay R3401], for which, in experiment [3], the “arterial plasma glucose following a glucagon challenge” value is recorded as “reduced significantly” and the “hepatic glucose output following a glucagon challenge” value was “reduced significantly”.
What is called IC50 is the concentration that gives 50% inhibition. As for `O=C(N[C@@H]1Cc2ccccc2[C@H]1CO)c1cc2cc(Cl)sc2[nH]1` [Example 5, 2-Chloro-N-[(1R,2R)-1-(hydroxymethyl)-2,3-dihydro-1H-inden-2-yl]-6H-thieno[2,3-b]pyrrole-5-carboxamide], the IC50 in experiment [4] came out at 0.493 µM.
